Laboratory results taken from patent US20100291086A1, “USE OF ESTROGEN AND ANDROGEN BINDING PROTEINS IN METHODS AND COMPOSITIONS FOR TREATING GYNAECOLOGICAL CANCERS” (priority 2007, published 2010).

Assays:
invasive breast cancer = conditions: women; cited from earlier work
[1] = women, same study; cited from earlier work
LNCaP cells = experiment: In vitro growth proliferation study, calcein uptake assay; format: cell-based, human; conditions: nilutamide 0.1 μM, 120 hours
Experimental: The effects of the polypeptide on the growth and proliferation of the cells was then assessed. […] In addition, LNCaP cells were also cultured in the presence of the non-steroidal antiandrogen nilutamide The human prostate cancer cell line, LNCaP was obtained from American Type Tissue Collection (ATCC) and was routinely cultured in growth medium containing phenol red RPMI 1640 (Invitrogen, Auckland, New Zealand) supplemented with 10% fetal bovine serum (FBS, GIBCO) and 1% antibiotic/antimycotic mixture (Invitrogen, Auckland, New Zealand). Cells were maintained at 37° C. in 5% CO2. […] In addition as control, 6 wells were treated with the nonsteroidal antiandrogen nilutamide (0.1 μM) as well as 6 wells with 10% charcoal stripped serum, to simulate steroid free conditions. After 120 hours in culture, cells were washed once with PBS and labelled with calcein ([…], Molecular Probes, Oregon, USA) at 1 mM final concentration in PBS. Calcein positive cells were detected using a FLUOstar OPTIMA plate reader (BMG Labtech, Victoria, Australia). Experiments were performed in 6 replicates for each treatment condition. Data are presented as mean±SEM unless otherwise indicated.

breast cancer = conditions: adjuvant tamoxifen for about 5 years, women with cancers expressing the estrogen receptor; cited from earlier work

## O=C(c1ccc(OCCN2CCCCC2)cc1)c1c(-c2ccc(O)cc2)sc2cc(O)ccc12 [Raloxifene]
Invasive breast cancer
  reduction of risk of invasive breast cancer: 44%
[1]
  increase of risk of fatal stroke: 49%

## CC1(C)NC(=O)N(c2ccc([N+](=O)[O-])c(C(F)(F)F)c2)C1=O [nilutamide]
LNCaP cells
  reduction of prostate cancer cell proliferation: 80%

## CC/C(=C(\c1ccccc1)c1ccc(OCCN(C)C)cc1)c1ccccc1 [tamoxifen]
Breast cancer
  reduction of annual breast cancer death rate: 31%
